Consider 1 substance from US7815907B2, “Antibodies to insulin-like growth factor I receptor” (Amgen Fremont Inc., priority 2001, dated 2010).

Assay [1] deals with T1, extracellular domain of IGF-IR (Homo sapiens, UniProt P08069).
T1 construct: Different concentrations of the extracellular domain of IGF-IR were injected on the sensorchip
Description: BIAcore affinity measurement, Protocol 1. The format is binding. As to conditions: BIAcore 3000; antibody captured on protein-A, IGF-IR extracellular domain injected. The procedure:
We performed affinity measures of purified antibodies by surface plasmon resonance using the BIAcore 3000 instrument, following the manufacturer's protocols.
To perform kinetic analyses, protein-A was immobilized on the sensorchip surfaces of the BIAcore. The sensorchip was then used to capture the anti-IGF-IR antibodies of the present invention. Different concentrations of the extracellular domain of IGF-IR were injected on the sensorchip and the binding and dissociation kinetics of the interactions between the anti-IGF-IR antibodies and the extracellular domain of IGF-IR were analyzed. The data were evaluated with global fit Langmuir 1:1, using baseline drift models available on the BIAevaluation software provided by BIAcore.
In general terms: In SPR one partner is held on a chip, and binding of the other changes the refractive index at the surface.

The target of a further assay is IGF-IR (Homo sapiens, UniProt P08069). Description: IGF-IR levels in 3T3/IGF-IR tumors by western blot after antibody and/or adriamycin. More on the design: expressed in transfected cells; host or cells: NIH-3T3 (mouse fibroblasts). In kind it is in vivo, nude mice. The procedure: Tumors were induced in nude mice as described in Example IX. Mice with established subcutaneous tumors of approximately 400 mm^3 were treated with a single injection of 250 μg 2.13.2 antibody (i.p.) or with 7.5 mg/kg adriamycin (i.v.), either as single agents or in combination, as described in Example IX. 72 hours after administration of the agents, tumors were extracted as described in Example VIII, and equal amounts of the tumor extracts were subjected to sodium […] polyacrylamide gel electrophoresis (SDS PAGE) and western blot analysis using the anti-IGF-IR antibody SC-713 (Santa Cruz). […] Each lane represents equal amounts of protein from individual tumors from individual mice.
(In general: Immunoblotting shows a protein as a band on a membrane.)

The next assay has as its system Colo 205 tumors. The experiment in a line: Growth inhibition of colorectal cell tumors. The format is in vivo, nude mice. The procedure:
Tumors were induced in nude mice as described in Example IX except that Colo 205 cells (ATCC CCL 222) were used. Colo 205 cells are human colorectal adenocarcinoma cells. Mice with established subcutaneous tumors of approximately 250 mm^3 were treated with various amounts of 2.13.2 antibody (i.p.) or with 100 mg/kg […] (5-FU, i.v.), either as single agents or in combination, as described in Example IX. […] Mice with established Colo 205 tumors were treated on days 1, 8, 15 and 22 with 500 μg 2.13.2 (i.p.), 100 mg/kg 5-FU (i.v.) or a combination thereof.

A further assay has as its system A431 tumors. Description: Growth inhibition of epidermoid carcinoma cell tumors. In kind it is in vivo, nude mice. The protocol: Tumors were induced in nude mice essentially as described in Example IX except that A431 cells (ATCC CRL 1555) were used. A431 cells are human epidermoid carcinoma cells that overexpress EGFR. Mice with established subcutaneous tumors of approximately 250 mm^3 were treated on days 1, 8, 15, 22 and 29 with 500 μg 2.13.2 antibody (i.p.) or were treated once daily for 27 days with 10 mg/kg CP-358,774 given orally (p.o.), either as single agents or in combination, as described in Example IX. CP-358,774 is described in U.S. Pat. No. 5,747,498 and Moyer et al., Cancer Research 57: 4838-4848 (1997), herein incorporated by reference.

A further assay concerns MCF-7 tumors. The experiment in a line: Growth inhibition of breast cancer cell tumors. The format is in vivo, nude mice. The procedure:
Nude mice as described in Example VIII were implanted with biodegradable estrogen pellets (0.72 mg 17-β-estradiol/pellet, 60 day release; Innovative Research of America). After 48 hours, tumors were induced in nude mice essentially as described in Example IX except that MCF-7 cells (ATCC HTB-22) were used. MCF-7 cells are estrogen-dependent human breast carcinoma cells. Mice with established subcutaneous tumors of approximately 250 mm^3 were treated with 50 μg 2.13.2 antibody (i.p.) on days 1, 4, 7, 10, 13, 16, 19 and 22 […] or with 6.25 mg/kg taxol (i.p.) on days 1, 2, 3, 4, 5 (q1dx5), either as single agents or in combination, essentially as described in Example IX.
Mice having established tumors from MCF-7 cells as described immediately above were treated on day 1 with various amounts of 2.13.2 antibody (i.p.) alone or with 3.75 mg/kg adriamycin (i.v.), essentially as described in Example IX.
Mice having established tumors from MCF-7 cells as described immediately above were treated with 250 μg 2.13.2 antibody (i.p.) on days 1, 8, 15 and 23 or with a biodegradable tamoxifen pellet (25 mg/pellet, free base, 60 day release, Innovative Research of America), either as single agents or in combination, essentially as described in Example IX. The tamoxifen pellet was implanted on day 1 after the tumor was established.

In the case of “2.13.2: human IgG2κ monoclonal antibody specific for IGF-IR from hybridoma 2.13.2 (ATCC PTA-2788)”, the Kd (as a rule, the constant that tells how readily two partners part at equilibrium) in assay [1] came to 3.5 nM. Moreover, in the assay with IGF-IR (72 hours after 250 μg 2.13.2 i.p. plus 7.5 mg/kg adriamycin i.v.), the “IGF-IR levels in tumors, adriamycin and antibody together” value was “dramatic decrease in IGF-IR levels”. In the assay with IGF-IR (72 hours after single 250 μg 2.13.2 i.p. or 7.5 mg/kg adriamycin i.v.), the “IGF-IR levels in tumors, single agent” value was “some decrease in IGF-IR levels”. For the same substance, the “Colo 205 tumor growth” value with Colo 205 tumors (500 μg i.p. on days 1, 8, 15 and 22) was “inhibits human colorectal cancer cell growth”; in the assay on Colo 205 tumors (antibody i.p. given once, single agent) it was “inhibits human colorectal cancer cell growth”. The “effect on effectiveness of 5-FU” value was “enhances the effectiveness of 5-FU” with Colo 205 tumors (500 μg i.p. on days 1, 8, 15 and 22 with 100 mg/kg 5-FU i.v.); “enhances the effectiveness of 5-FU” with Colo 205 tumors (antibody given once with 100 mg/kg 5-FU i.v.). Further, the “effect on effectiveness of CP-358,774” value with A431 tumors (500 μg i.p. on days 1, 8, 15, 22 and 29 with 10 mg/kg CP-358,774 p.o. daily for 27 days) is listed as “enhances the effectiveness of CP-358,774”. Besides, the A431 tumor growth entry with A431 tumors (multiple doses, alone or in combination with CP-358,774 (FIG. 16)) is given as “inhibit A431 tumor growth”. Moreover, the “effect on effectiveness of taxol” value with MCF-7 tumors (50 μg i.p. once every three days with 6.25 mg/kg taxol i.p. q1dx5) is “enhances the effectiveness of taxol”. Besides, the MCF-7 tumor growth result in the assay on MCF-7 tumors (50 μg i.p. once every three days, by itself) is listed as “inhibits human breast cancer cell growth”; in the assay with MCF-7 tumors (250 μg i.p. on days 1, 8, 15 and 23, by itself), “inhibits human breast cancer growth”; in the assay on MCF-7 tumors (single treatment i.p. on day 1, by itself), “inhibits human breast cancer cell growth”. Moreover, the “effect on effectiveness of tamoxifen” value in the assay with MCF-7 tumors (250 μg i.p. on days 1, 8, 15 and 23 with tamoxifen pellet 25 mg) is listed as “enhances the effectiveness of tamoxifen”. Moreover, the “effect on effectiveness of adriamycin” value with MCF-7 tumors (single treatment on day 1 with 3.75 mg/kg adriamycin i.v.) was “enhances the effectiveness of adriamycin”.
